Assays:
[1] = target: T1, H-Ras(M72C) bound to either GDP or GppNHp (Homo sapiens, UniProt P01112, M72C); assay: Electrophile labeling experiments (percent modification by whole protein LC/MS); type: binding
T1 construct: Labeling studies were conducted using the 1-166 H-Ras(M72C) construct containing all endogenous cysteines; His6; made in house; host or cells: Escherichia coli BL21(DE3)
Method: Electrophile Labeling Experiments.
Each reaction was analyzed in a 96 well plate format for analysis by LC/MS. Total reaction volumes were 25 μL for single time point labeling experiments and 200 uL for full 24-hour time courses. 25 μL reactions were made in the wells of a V-bottom 96 well plate and 200 uL reactions were made in 1.25 mL eppendorf tubes. All labeling reactions were conducted in Gel Filtration Buffer (20 mM HEPES (pH 7.5), 150 mM NaCl) with no added reductant at room temperature. […] Electrophile stocks were made in DMSO at 10 mM, aliquoted, and frozen. Labeling reactions were started by the addition of the desired volume of 10 mM electrophile stock and mixed thoroughly by pipette. General screening of new electrophiles was done at 100 μM electrophile in triplicate and sampled as a single time point after 24 hours of incubation. For Compound 3, labeling time courses were conducted at 20 μM compound with sampling done every 2 hours for the first 10 hours of incubation and continued after overnight incubation until the protein was fully modified. Reactions were allowed to sit at room temperature in the dark (either covered in aluminum foil or in a bench drawer) until the desired time point was reached. For 24-hour single point labeling experiments, the reaction was directly sampled from the 96 well plate and analyzed by LC/MS. For experiments with multiple time points, 22.5 μL aliquots of the 200 μL master reaction were sampled and quenched by the addition of 2.5 μL of 2% formic acid (also made in Gel Filtration Buffer). This 25 μL quenched sample was then analyzed by LC/MS and the remaining master reaction was allowed to continue reacting after gentle mixing by pipette. The percent modification was analyzed by electrospray mass spectrometry using a Waters Acquity UPLC/ESI-TQD with a 2.1×50 mm Acquity UPLC BEH300 C4 column.

[2] = target: T2, p110d/p85a (PI3K-d) activation by H-Ras-GTP (Homo sapiens, UniProt P01112, C118S/G12V/M72C); assay: PI3K lipid kinase assay with membrane-coupled H-Ras (Transcreener ADP2 FI); type: biochemical; settings: with pY phosphopeptide; H-Ras(G12V) alone gave 20-fold
T2 construct: Plasmids expressing 1-181 H-Ras(G12V/C118S) and H-Ras(G12V/M72C/C118S); His tag (purified on HisTrap, TEV-cleavable) (cleaved yes); made in house; host or cells: Escherichia coli BL21 DE3 (H-Ras)
Method: Purification and Modification of H-Ras Constructs for Lipid Kinase Assays. Plasmids expressing 1-181 H-Ras(G12V/C118S) and H-Ras(G12V/M72C/C118S) were transformed into BL21 DE3 and the culture was induced at OD 0.6-0.9 with […] IPTG. The cultures were then allowed to grow for 4 h at 37° C. after which the cells were pelleted and stored at −80° C. Frozen pellets were re-suspended in lysis buffer and lysed by sonication (10s ON; 10s OFF; Power-6.0). Triton-X was added to a final concentration of 0.1% and lysate was centrifuged at 20,000 g for 45 minutes (Beckman Coulter Avanti J-251, JA 25.50 rotor). The supernatant was loaded on a 5 mL HisTrapTm FF column (GE Healthcare) equilibrated with buffer containing 10 mM imidazole pH 8.0 (NiNTA A). Following washes with 20 mL NiNTA A and 20 mL of 6% buffer containing 200 mM imidazole pH 8.0 (NiNTA B), the protein was eluted in 100% NiNTA B. The elution was buffer exchanged with NiNTA A buffer in a 10,000 MWCO Amicon concentrator (Millipore). The sample was concentrated down to <2 mL and TEV protease was added to −0.3 mg/mL. The cleavage was allowed to proceed overnight at 4° C. To de-enrich the TEV protease, the protein solution was loaded onto a HisTrapTm FF column and eluted with 10 mL of NiNTA A buffer. The elution was concentrated to −2 mL. […]

[3] = target: T3, 1-181 H-Ras(G12V/M72C/C118S) (Homo sapiens, UniProt P01112, C118S/G12V/M72C); assay: Coupling of Compound 3 to H-Ras M72C construct for lipid kinase assays; type: binding; settings: M72C construct with 200-250 Compound 3, 72 hours, 4° C.
T3 construct: Plasmids expressing 1-181 H-Ras(G12V/C118S) and H-Ras(G12V/M72C/C118S); His tag (purified on HisTrap, TEV-cleavable) (cleaved yes); made in house; host or cells: Escherichia coli BL21 DE3
Method: Coupling to inhibitor was done in a reaction containing […], 100 mM TCEP, 1 mM MgCl2 and […] Compound 3. DMSO was adjusted to a final concentration of 5%. After 24 hours, more inhibitor was added to a total final concentration of […]. The coupling was allowed to proceed for −72 hours at 4° C. Coupling efficiency was −70%. The coupled protein was exchanged with gel filtration buffer and loaded with GTPgS in the same manner as the H-Ras(G12V) construct. The protein was then run on a Superdex™ 75 10/300 GL size-exclusion column (GE Healthcare) equilibrated in Ras gel filtration buffer to remove excess nucleotide.

**Q.** What does the source list for `C=CC(=O)Nc1cc(Cl)cc(NC(=O)c2cnn(-c3ccc(OC)cc3)c2C(F)(F)F)c1` [Compound 3, N-(3-acrylamido-5-chlorophenyl)-1-(4-methoxyphenyl)-5-(trifluoromethyl)-1H-pyrazole-4-carboxamide]?
**A.** Percent modification (labeling of Cys 72) ([1]; 4 μM H-Ras(M72C) GDP or GppNHp, 100 μM electrophile, 24 hours): improved covalent binding; labeling of the GDP state ([1]; H-Ras(M72C) GDP, 20 μM electrophile (1:5 Ras to Compound 3), time course): rapidly and fully labels the GDP state; modification of the GppNHp state ([1]; H-Ras(M72C) GppNHp, 20 μM electrophile (1:5 Ras to Compound 3)): 88.7%; activation of PI3K-d activity by H-Ras(G12V/M72C) bound to compound [2]: ~3 fold; Coupling efficiency [3]: 70%

Reference: patent publication US11136297B2, “Compositions and methods for treating cancer” (THE REGENTS OF THE UNIVERSITY OF CALIFORNIA, priority 2016, dated 2021)
